Data published in patent US9237744B2, “Preservative solution for cells, tissues and organs containing rare sugar and preservative method thereof” (NATIONAL UNIVERSITY CORPORATION KAGAWA UNIVERSITY, priority 2004, dated 2016).

How the values were obtained:
human sperms = experiment: Movement rate of frozen and thawed sperms, visual observation with Makler Counting Chamber; type: cell-based; settings: KS-II solution with D-allose alone versus glucose only, liquid nitrogen 1 month, P=0.0469 (FIG. 16)
Method: Semens of ten healthy men who were 24 to 44 years old (mean: 29.9) with normal semens were used.
The semen was manually collected after abstinence for 3 to 5 days, liquefied at room temperature, and then washed and concentrated by a 80% Percoll liquid agitation density gradient method. The resulting sperm turbid solution (0.2 ml) and the freeze-preservative solution were mixed in equal amounts, and the mixture was charged into a freezing tube (serum tube, Sumitomo Bakelite), frozen by a liquid nitrogen vapor freezing method, and then preserved in a liquid nitrogen tank. The freeze-preservative solution (refer to FIG. 14) was used such that the mixing amounts of D-allose and D-glucose were changed (A group=1:0, B group=3:1, C group=1:1, D group=1:3, E group=0:1) without changing the number of moles of the sugar in a KS-II sperm preservative solution. One month later, the frozen sperms were thawed in warm water (30° C.) with shaking. Further, for removal of the freeze-preservative solution and reconcentration, the density gradient centrifugation method was conducted, and the resulting sperm floating solution was examined.
As the examination method, the sperm movement rate was measured by a visual observation method with Makler Counting Chamber and C-IMAGING SYSTEMS, and the survival rate was measured by 0.5% Eosin Y dying. […]

[1] = tested on: NIH3T3, OVCAR-3, HaCaT and HFB cells; experiment: Cell preservation with DMSO plus rare sugar, growth after thawing (Example 1); type: cell-based, human, mouse; settings: DMSO decreased to 1%, sub-optimal condition (FIG. 4, FIG. 5)
Method: 1. Cells used: Hela (human cervical cancer), OVCAR-3 (human ovarian cancer), HuH-7 (human liver cancer), HaCaT (human skin keratinocyte), HFB (human fibroblast) and NIH3T3 (mouse fibroblast). Saccharides D-allose and the like were added to culture medium, Cell Banker (commercially available preservative solution) and DMSO at concentrations of 25 mM and 50 mM. Monosaccharides such as D-glucose, D-fructose, D-mannose and D-galactose which are present in nature in large quantities and D-allose, D-psicose, D-altrose, allitol, D-talitol and L-sorbose as rare sugars were used. Further, trehalose as disaccharide was used. The cells were preserved for 24 hours by being frozen at −80° C. 2) Cell growth: One day later, the cells were thawed, and 0.25˜2×10^4 cells/well were spread on 96-well plate with 0.1 mL medium. After a prescribed period of time, the cell growth was measured by MTT assay. 4) Since DMSO (dimethyl sulfoxide) is also commonly added to culture medium at a rate of 10% and used in freeze-preservation, the effect of rare sugar was examined in the system of DMSO. The difference in effect of rare sugar is hardly observed in a system using 10% DMSO, the effect of cell preservation was comparatively examined under a sub-optimal condition by decreasing the concentration of DMSO to 1%. NIH3T3, OVCAR-3, HaCaT and HFB cells and the like were used. […]

[2] = tested on: Hela, OVCAR-3, HaCaT, HFB and NIH3T3 cells; experiment: Survival rate of cells after freeze-preservation at high sugar concentration, trypan blue (Example 2); type: cell-based, human, mouse
Method: 1. Cells used: Hela (human cervical cancer), OVCAR-3 (human ovarian cancer), HaCaT (human skin keratinocyte), HFB (human fibroblast) and NIH3T3 (mouse fibroblast). Saccharides D-allose and the like were added to culture medium, Cell Banker (commercially available preservative solution) and DMSO at concentrations of 0.2, 0.4, 0.6, 0.8 and 1M. Monosaccharides such as D-glucose, D-fructose, D-mannose and D-galactose which are present in nature in large quantities and D-allose, D-altrose, D-psicose, L-psicose, D-sorbose, L-sorbose, D-tagatose, L-tagatose and L-fructose as rare sugars were used. Further, trehalose as disaccharide was used. The cells frozen with D-allose were freeze-preserved at −80° C. and in liquid nitrogen for 24 hours, 1 week and 4 weeks. 1) Survival rate of cells: The cells were thawed, and the survival rate was estimated by a trypan blue dying method.

HFB (human fibroblast) = experiment: Survival rate of cells after freeze-preservation at −80° C. for 24 hours, trypan blue (Example 1); type: cell-based; settings: concentration 50 mM (foregoing studies)
Method: 1. Cells used: Hela (human cervical cancer), OVCAR-3 (human ovarian cancer), HuH-7 (human liver cancer), HaCaT (human skin keratinocyte), HFB (human fibroblast) and NIH3T3 (mouse fibroblast). Saccharides D-allose and the like were added to culture medium, Cell Banker (commercially available preservative solution) and DMSO at concentrations of 25 mM and 50 mM. Monosaccharides such as D-glucose, D-fructose, D-mannose and D-galactose which are present in nature in large quantities and D-allose, D-psicose, D-altrose, allitol, D-talitol and L-sorbose as rare sugars were used. Further, trehalose as disaccharide was used. The cells were preserved for 24 hours by being frozen at −80° C. 1) Survival rate of cells: One day later, the cells were thawed, and the survival rate was estimated by trypan blue dying method.

[3] = tested on: Hela, OVCAR-3, HaCaT, HFB and NIH3T3 cells; experiment: Cell growth after thawing of cells freeze-preserved at optimum concentrations, MTT assay (Example 2); type: cell-based, human, mouse
Method: 1. Cells used: Hela (human cervical cancer), OVCAR-3 (human ovarian cancer), HaCaT (human skin keratinocyte), HFB (human fibroblast) and NIH3T3 (mouse fibroblast). Saccharides D-allose and the like were added to culture medium, Cell Banker (commercially available preservative solution) and DMSO at concentrations of 0.2, 0.4, 0.6, 0.8 and 1M. Monosaccharides such as D-glucose, D-fructose, D-mannose and D-galactose which are present in nature in large quantities and D-allose, D-altrose, D-psicose, L-psicose, D-sorbose, L-sorbose, D-tagatose, L-tagatose and L-fructose as rare sugars were used. Further, trehalose as disaccharide was used. The cells frozen with D-allose were freeze-preserved at −80° C. and in liquid nitrogen for 24 hours, 1 week and 4 weeks. 2) Cell growth: The cells were freeze-preserved with D-allose and trehalose at optimum concentrations for 24 hours, thawed, and spread on a 96-well plate such that the concentration was 0.5-1×10^4 cells/well/0.1 ml. After a prescribed period of time, the cell growth was measured by MTT assay.

O=C[C@H](O)[C@H](O)[C@H](O)[C@H](O)CO [D-allose]
movement rate of thawed sperms (human sperms): high in movement rate of thawed sperms in the eight of nine cases | effect of preservation with DMSO [1]: improved | cell survival rate after thawing in comparison with other rare sugars ([2]; 0, 0.2, 0.4, 0.6, 0.8 and 1M, comparison under way, tendency): the highest | survival rate of cells ([2]; D-allose added to 10% DMSO and Cell Banker, compared with DMSO and Cell Banker): the higher the concentration of D-allose, the lower the survival rate of cells | optimum preservation temperature ([2]; D-allose-containing freeze-preservative agent): −80 °C | survival rate of cells with extended time of freeze-preservation ([2]; freeze-preservation extended by one month): not changed so much | number of cells survived (trypan blue dying) ([2]; sugar-containing medium in comparison with medium alone (FIG. 7)): large | survival rate by temperature of freeze-preservation ([2]; −80° C. versus liquid nitrogen): much higher | improvement effect as preservative agent (HFB (human fibroblast)): no great improvement effect was obtained | growth rate of cells after thawing ([3]; freeze-preserved 24 hours at optimum concentration, versus other cases (FIG. 8)): higher in growth rate | functional impairment of frozen cells ([3]; versus commercially available Cell Banker cell preservative solution): less impaired functionally
